From article PMC4965013, “Open Source Drug Discovery with the Malaria Box Compound Collection for Neglected Diseases and Beyond” (PLoS Pathogens, 2016)

Legend:
[1] = test system: P. falciparum 3D7 trophozoites; experiment: Metabolomic fingerprint profiling LC-MS; assay type: cell-based, Plasmodium falciparum; set-up: UDP-D-glucose / ADP-D-glucose: unit not given here; conditions: for Acetyllysine / N-acetyl-L-ornithine / N-carbamoyl-L-aspartate / NADPH / dAMP / dCMP / dTDP / dTMP / dTTP / dihydroorotate / orotate / DLH / DLS/SDL/SID / PD / PEE / PVNF / 3-phosphoglycerate / ADP-D-glucose / ATP / CDP / D-sedoheptulose-1/7-phosphate / FAD / GMP / NAD+ / NADP+ / Octoluse Bisphosphate / Pyroglutamic acid / UDP-D-glucose / UDP-D-glucuronate / UDP-N-acetyl-glucosamine / UDP / UMP / UTP / a-ketoglutarate / citrate/isocitrate / cytidine / dATP / dGMP/AMP / fumarate / glucose-1/6-phosphate / glycerate / guanine / guanosine / hypoxanthine / indole / inosine / nicotinate / ornithine / phosphoenolpyruvate / pyruvate / ribose-phosphate / sarcosine/alanine / sn-glycerol-3-phosphate / succinate/methylmalonic acid / uridine / xanthosine: S2 Table Metabolomics; for Acetyllysine: metabolite Acetyllysine; for N-acetyl-L-ornithine: metabolite N-acetyl-L-ornithine; for N-carbamoyl-L-aspartate: metabolite N-carbamoyl-L-aspartate; for NADPH: metabolite NADPH; for dAMP: metabolite dAMP; for dCMP: metabolite dCMP; for dTDP: metabolite dTDP; for dTMP: metabolite dTMP; for dTTP: metabolite dTTP; for dihydroorotate: metabolite dihydroorotate; for orotate: metabolite orotate; for DLH: peptide DLH; for DLS/SDL/SID: peptide DLS/SDL/SID; for PD: peptide PD; for PEE: peptide PEE; for PVNF: peptide PVNF; for 3-phosphoglycerate: metabolite 3-phosphoglycerate; for ADP-D-glucose: metabolite ADP-D-glucose; for ATP: metabolite ATP; for CDP: metabolite CDP; for CDP / D-sedoheptulose-1/7-phosphate / GMP / Octoluse Bisphosphate / UDP / UMP / UTP / citrate/isocitrate / dGMP/AMP / fumarate / glucose-1/6-phosphate / glycerate / guanine / guanosine / inosine / pyruvate / sarcosine/alanine / succinate/methylmalonic acid / uridine / xanthosine: change in metabolite level after compound treatment; for D-sedoheptulose-1/7-phosphate: metabolite D-sedoheptulose-1/7-phosphate; for FAD: metabolite FAD; for GMP: metabolite GMP; for NAD+: metabolite NAD+; for NADP+: metabolite NADP+; for Octoluse Bisphosphate: metabolite Octoluse Bisphosphate; for Pyroglutamic acid: metabolite Pyroglutamic acid; for UDP-D-glucose: metabolite UDP-D-glucose; for UDP-D-glucuronate: metabolite UDP-D-glucuronate; for UDP-N-acetyl-glucosamine: metabolite UDP-N-acetyl-glucosamine; for UDP: metabolite UDP; for UMP: metabolite UMP; for UTP: metabolite UTP; for a-ketoglutarate: metabolite a-ketoglutarate; for citrate/isocitrate: metabolite citrate/isocitrate; for cytidine: metabolite cytidine; for dATP: metabolite dATP; for dGMP/AMP: metabolite dGMP/AMP; for fumarate: metabolite fumarate; for glucose-1/6-phosphate: metabolite glucose-1/6-phosphate; for glycerate: metabolite glycerate; for guanine: metabolite guanine; for guanosine: metabolite guanosine; for hypoxanthine: metabolite hypoxanthine; for indole: metabolite indole; for inosine: metabolite inosine; for 2_3-Diphosphoglyceric acid / 4-phosphopantothenate / 6-phospho-D-gluconate / FMN / IMP / Pyrophosphate / Sedoheptoluse bisphosphate / cyclic-AMP / glutathione disulfide / lactate / myo-inositol: metabolite level change after treatment; for nicotinate: metabolite nicotinate; for ornithine: metabolite ornithine; for phosphoenolpyruvate: metabolite phosphoenolpyruvate; for pyruvate: metabolite pyruvate; for ribose-phosphate: metabolite ribose-phosphate; for sarcosine/alanine: metabolite sarcosine/alanine; for sn-glycerol-3-phosphate: metabolite sn-glycerol-3-phosphate; for succinate/methylmalonic acid: metabolite succinate/methylmalonic acid; for uridine: metabolite uridine; for xanthosine: metabolite xanthosine
P. falciparum = experiment: EC50 listed in S2 Table Metabolomics (used to set the concentration tested); assay type: cell-based; conditions: Plasmodium falciparum; EC50 used for Factor_XEC50 in metabolomics; read-out: EC50_nM

Fc1ccc2[nH]c3c(NCCCN4CCOCC4)ncnc3c2c1 [MMV019871]
Acetyllysine [1]: -0.8876
N-acetyl-L-ornithine [1]: -0.1209
N-carbamoyl-L-aspartate [1]: 0.08503
NADPH [1]: 0.6093
dAMP [1]: 0.6696
dCMP [1]: -0.1368
dTDP [1]: 0.799
dTMP [1]: 0.8196
dTTP [1]: 0.3182
dihydroorotate [1]: 0.6163
orotate [1]: 0.06699
DLH [1]: -1.437
DLS/SDL/SID [1]: -0.7695
PD [1]: -0.933
PEE [1]: -0.4641
PVNF [1]: -1.358
3-phosphoglycerate [1]: -0.4045
ADP-D-glucose [1]: -0.2501
ATP [1]: -0.2422
CDP [1]: 0.8712
D-sedoheptulose-1/7-phosphate [1]: 0.6203
FAD [1]: -0.1788
GMP [1]: 0.008366
NAD+ [1]: -0.1288
NADP+ [1]: -0.2271
Octoluse Bisphosphate [1]: -0.5075
Pyroglutamic acid [1]: 0.06535
UDP-D-glucose [1]: -0.1274
UDP-D-glucuronate [1]: -0.1958
UDP-N-acetyl-glucosamine [1]: -0.09954
UDP [1]: 0.8844
UMP [1]: -0.5999
UTP [1]: -0.2069
a-ketoglutarate [1]: -0.1645
citrate/isocitrate [1]: -0.2521
cytidine [1]: -0.343
dATP [1]: -0.2053
dGMP/AMP [1]: 0.4546
fumarate [1]: -0.6533
glucose-1/6-phosphate [1]: -0.1277
glycerate [1]: -0.2409
guanine [1]: 0.2236
guanosine [1]: 0.1132
hypoxanthine [1]: 0.02159
indole [1]: -0.3008
inosine [1]: 0.02443
2_3-Diphosphoglyceric acid [1]: -0.241
4-phosphopantothenate [1]: -0.03538
6-phospho-D-gluconate [1]: -0.1618
FMN [1]: 0.07605
IMP [1]: 0.1512
Pyrophosphate [1]: -0.1841
Sedoheptoluse bisphosphate [1]: -0.3231
cyclic-AMP [1]: -0.2059
glutathione disulfide [1]: -0.2521
lactate [1]: 0.01945
myo-inositol [1]: 0.08413
nicotinate [1]: 0.1601
ornithine [1]: 0.04638
phosphoenolpyruvate [1]: -0.3024
pyruvate [1]: 0.2194
ribose-phosphate [1]: -0.9686
sarcosine/alanine [1]: -0.2747
sn-glycerol-3-phosphate [1]: -0.2288
succinate/methylmalonic acid [1]: -0.1938
uridine [1]: 0.09395
xanthosine [1]: -0.4756
EC50 (P. falciparum): 0.345 µM

CCn1c(CN2CCN(Cc3ccccc3)CC2)nc2cc(NC(=O)c3cccs3)ccc21 [MMV020439]
Acetyllysine [1]: 0.7202
N-acetyl-L-ornithine [1]: 1.173
N-carbamoyl-L-aspartate [1]: 4.61
NADPH [1]: 0.6182
dAMP [1]: -1.31
dCMP [1]: -0.04169
dTDP [1]: -1.17
dTMP [1]: -0.7966
dTTP [1]: -1.312
dihydroorotate [1]: 4.909
orotate [1]: 0.06984
DLH [1]: 0.527
DLS/SDL/SID [1]: 0.4749
PD [1]: 0.8243
PEE [1]: 1.011
PVNF [1]: 0.2931
3-phosphoglycerate [1]: -0.2906
ADP-D-glucose [1]: 0.1986
ATP [1]: -0.1401
CDP [1]: -0.619
D-sedoheptulose-1/7-phosphate [1]: 0.1339
FAD [1]: 0.2064
GMP [1]: -0.008752
NAD+ [1]: -0.02079
NADP+ [1]: 0.1784
Octoluse Bisphosphate [1]: -0.1148
Pyroglutamic acid [1]: -0.1051
UDP-D-glucose [1]: -0.06605
UDP-D-glucuronate [1]: -0.1248
UDP-N-acetyl-glucosamine [1]: -0.297
UDP [1]: -1.2
UMP [1]: -1.107
UTP [1]: -1.42
a-ketoglutarate [1]: -0.8941
citrate/isocitrate [1]: -0.2089
cytidine [1]: 0.004614
dATP [1]: 0.08773
dGMP/AMP [1]: -0.284
fumarate [1]: 0.6925
glucose-1/6-phosphate [1]: -0.2278
glycerate [1]: -0.4348
guanine [1]: 0.1895
guanosine [1]: 0.2428
hypoxanthine [1]: -0.1751
indole [1]: -0.1227
inosine [1]: -0.4694
2_3-Diphosphoglyceric acid [1]: -0.2253
4-phosphopantothenate [1]: -0.909
6-phospho-D-gluconate [1]: -0.007867
FMN [1]: -0.349
IMP [1]: -0.2804
Pyrophosphate [1]: -0.2048
Sedoheptoluse bisphosphate [1]: 0.08493
cyclic-AMP [1]: -0.08461
glutathione disulfide [1]: -0.0242
lactate [1]: -0.4874
myo-inositol [1]: -0.8159
nicotinate [1]: -0.2742
ornithine [1]: -0.03081
phosphoenolpyruvate [1]: -0.3915
pyruvate [1]: -0.2887
ribose-phosphate [1]: -0.1311
sarcosine/alanine [1]: 1.094
sn-glycerol-3-phosphate [1]: 0.2993
succinate/methylmalonic acid [1]: 0.5601
uridine [1]: 0.2091
xanthosine [1]: -0.0525
EC50 (P. falciparum): 0.512 µM
